Experiments:
[1] = tested on: HK-2 cells; experiment: Individual shRNA screening: survival of transduced HK-2 cells under hypoxia (Protocol 2); assay type: cell-based, human; conditions: viable shRNA-transduced HK-2 cells after hypoxia (0.2% oxygen 48 hours, low glucose DMEM) vs control HK-2 cells; 2-6 independent experiments; methylene blue
Text: shRNA of the invention can be expressed from any suitable vector such as a recombinant viral vector either as two separate, complementary RNA molecules, or as a single RNA molecule with two complementary regions. In this regard, any viral vector capable of accepting the coding sequences for the shRNA molecule(s) to be expressed can be used. Examples of suitable vectors include but are not limited to vectors derived from adenovirus, adeno-associated virus, retroviruses (e.g, lentiviruses, Rhabdoviruses, murine leukemia virus), herpes virus, and the like. A preferred virus is a lentivirus. The tropism of the viral vectors can also be modified by pseudotyping the vectors with envelope proteins or other surface antigens from other viruses. As an alternative to expression of shRNA in cells from a recombinant vector, chemically stabilized shRNA or siRNAs may also be used administered as the agent in the method of the invention. Vectors for expressing shRNA which in turn produces siRNA once introduced into a cell are commercially available. Further, shRNAs which facilitate produce of siRNA targeted to virtually every known human gene are also known and are commercially available. In embodiments specific shRNAs are those which comprise polynucleotide sequences presented in Table 2, wherein those sequences are targeted to the genes as indicated. In particular, Table 2 provides the sequence of segments of shRNAs that target the HRGs of the present disclosure. […] “RPCI” under source designates the “shRNA Resource of Roswell Park Cancer Institute” which distributes shRNAs from commercial vendors. The catalog # column signifies a reference under which each of the shRNAs are made available to the public. The SEQ ID # column refers to the sequence listing that forms a part of this disclosure. The polynucleotide sequences provided in Table 2 are cDNA sequences that recognize the target gene mRNA via shRNA. It will be recognized by those skilled in the art that the shRNAs used in the Examples presented herein have the identical sequences as listed in Table 2, except for substitution of each thymine with uracil. It will be also recognize that each of the shRNAs as used in practice has additional sequences that are typical of shRNA constructs, but that the sequences listed in Table 2 are the ones that are antisense to the mRNA of the indicated HRGs.
Protocol 2: Individual shRNA screening.
Cell Preparation: Lentiviral vectors containing various shRNAs of interest were obtained from commercial sources, and packaged in 293T cells. HK-2 cells were then transduced with these expression constructs and selected for the presence of a vector-encoded antibiotic resistance marker.
Hypoxia Protocol: Day 0: HK-2 cells containing individual shRNAs were seeded in triplicate on two 96-well plates, 3×10^4 cells/well. Negative controls included uninfected cells or cells infected with a corresponding empty vector. Day 1: Keratinocyte medium was removed from the plates and fresh DMEM containing low glucose was added. One of the plates was then transported to a chamber that contained 0.2% oxygen for 48 hours, while the other remained at normoxia for the same period of time. Day 3: The cells were rescued from hypoxia and the plates were immediate fixed and stained with methylene blue to assess survival. Results were then graphed as the percent of stain of the corresponding cells incubated in normoxic conditions minus the background (non-specific dye absorption by empty wells).

[2] = tested on: kidneys; experiment: Mouse model of acute renal ischemia, plasma markers of kidney damage; assay type: in vivo; conditions: i.p. 30 mg/kg or 90 mg/kg 30 minutes before 25 min ischemia of both kidneys, 24 hrs after reperfusion, FIG. 8
Procedure: In particular, the protective effects of chemically inhibiting TACR1 were examined in a mouse model of acute renal ischemia using the following protocol: i. 30 minutes before the surgery, mice received an i.p. injection of a TACR1 inhibitor (L-733,060) at either 30 mg/kg or 90 mg/kg, or of the respective vehicle (saline). ii. Under general anesthesia with Ketamin/Rompun, the mice were subjected to 25 min of ischemic of both kidneys. Each of the 2 kidneys was exposed through a flank incision. The kidney pedicle was clamped with atraumatic clamps for 25 min. iii. Mice were kept in an incubator at constant temperature 36 C during the 25 min of ischemia. After 25 min of ischemia, clamps were removed and wounds were closed. iv. 24 hrs after reperfusion blood samples were taken and mice were sacrificed. v. The levels of biochemical markers of kidney damage were measured in the plasma of the collected blood. Specifically, creatinine, neutrophil gelatinase-associated lipocalin (NGAL), osteopontin and urea (blood urea nitrogen) were measured.

[3] = tested on: HKC8 cells; experiment: TACR1 inhibitor: protection of HKC8 cells under hypoxia; assay type: cell-based; conditions: 5 μM, 0.2% oxygen 48 hours, low glucose DMEM; methylene blue; FIG. 11
Procedure: We also tested the protective activity of a chemical TACR1 inhibitor in HKC8 cells using the following protocol. Day 0: HKC8 cells were seeded in complete keratinocyte medium at a density of 2×10^4 cells per well on two 96-well plates. Day 1: Keratinocyte medium was removed from the plates and fresh DMEM containing low glucose and 5 μM TACR1 inhibitor (L-733,060) was added where indicated. Treated and untreated cells were present on the plates in triplicate. The two plates were incubated in the presence of the inhibitor at normal growth conditions for 1 hour, at which time one of the plates was transported to a chamber that contained 0.2% oxygen for 48 hours, while the other remained at normoxia for the same duration. Day 3: Following exposure to hypoxia, the cells were rescued and the plates were immediately fixed and stained with methylene blue to assess survival. Results were then graphed as the percent of stain of the corresponding cells incubated in normoxic conditions minus the background (non-specific dye absorption by empty wells).

[4] = tested on: HK-2 cells; experiment: Combined inhibition of RhoB (shRNA) and TACR1 (L-733,060): HK-2 survival in hypoxia; assay type: cell-based; conditions: L-733,060 5 μM on HK2-RhoB cells (shRNA to RhoB) vs either one alone; 0.2% oxygen 48 hours; FIG. 9
Procedure: To obtain the data presented in FIG. 9, HK-2 cells were trasnduced with either a construct expressing an shRNA to RhoB (cell line “HK2-RhoB”) or the corresponding empty vector (cell line “HK2-vector”). The survival of cells in hypoxic condition with or without addition of TACR1 inhibitor was evaluated using the following protocol: Day 0: HK-2 cells were seeded on two 96-well plates, 3×10^4 cells/well. Day 1: Keratinocyte medium was removed from the plates and fresh DMEM containing low glucose. TACR1 inhibitor (L-733,060; 5 μM) was added to half of the wells of either HK2-RhoB or HK2-vector. One hour later one of the plates was transported to a chamber that contained 0.2% oxygen for 48 hours, while the other remained at normoxia for the same period of time. Day 3: The cells were rescued from hypoxia and the plates were immediate fixed and stained with methylene blue to assess survival. Results were then graphed as the percent of stain of the corresponding cells incubated in normoxic conditions minus the background (non-specific dye absorption by empty wells).

[5] = tested on: hRPTEC cells; experiment: TACR1 inhibitor: survival of hRPTEC cells under hypoxia; assay type: cell-based; conditions: 0.2% oxygen 48 hours, low glucose DMEM, inhibitor added 1 hour before; methylene blue; FIG. 7
Procedure: The following protocol was used: Day 0: hRPTEC were seeded on two 96-well plates, 2×10^4 cells/well. Day 1: Keratinocyte medium was removed from the plates and fresh DMEM containing low glucose and the indicated concentration of the TACR1 inhibitor (L-733,060) was added. Each concentration was examined in quadruplicate fashion. The two plates were incubated in the presence of the inhibitor at normal growth conditions for 1 hour, at which time one of the plates was transported to a chamber that contained 0.2% oxygen for 48 hours, while the other remained at normoxia for the same period of time. Day 3: The cells were rescued from hypoxia and the plates were immediate fixed and stained with methylene blue to assess survival. The percent of stain of the corresponding cells incubated in normoxic conditions minus the background (non-specific dye absorption by empty wells) was calculated as a measure of cell resistance to the hypoxia. The results were plotted as a fold increase in resistance over that of cells not treated with L-733,060.

Compound	geometric mean of fold increase in cell number [1] [fold]	further results
11 (TCTTGCCAAGGTTTATGGC; expressed or natural sequence) [compound 11]	8	
12 (ATCTCTTTGGACTTGAAGC; expressed or natural sequence) [compound 12]	9	
13 (TGATGTCTGGTGTAGTAGG; expressed or natural sequence) [compound 13]	10	
14 (ATCTCCTGAATATTTCAGCAG; expressed or natural sequence) [compound 14]	13	
15 (ATGACATTGATCTGATCCA; expressed or natural sequence) [compound 15]	23	
16 (TCTTCAACAGAATCCACTT; expressed or natural sequence) [compound 16]	6	
17 (AAACGCTAAAGATGAGTCC; expressed or natural sequence) [compound 17]	7	
18 (ATTGGTTTGATTTCCTCCC; expressed or natural sequence) [compound 18]	18	
19 (AACATGTTCATAACCAGGTCG; expressed or natural sequence) [compound 19]	26	
20 (TCTTCTAAGCACTGAAGAG; expressed or natural sequence) [compound 20]	11	
21 (TTACTGAACACGATCAGCAGG; expressed or natural sequence) [compound 21]	22	
22 (TACTGAACACGATCAGCAG; expressed or natural sequence) [compound 22]	9	
23 (ATAAATATCTGTTCCCAAG; expressed or natural sequence) [compound 23]	15	
24 (TTCTTGTAAATAATGAGCG; expressed or natural sequence) [compound 24]	5	
25 (TTCTCATAAATCTTGTTCG; expressed or natural sequence) [compound 25]	15	
26 (TTCCAGTAGAAGTAGTACT; expressed or natural sequence) [compound 26]	12	
27 (TTGGATCTGTAAAGACGCCAC; expressed or natural sequence) [compound 27]	5	
FC(F)(F)c1cc(CO[C@H]2CCCN[C@H]2c2ccccc2)cc(C(F)(F)F)c1 [L-733,060, (2S,3S)-3-{[3,5-bis(trifluoromethyl)benzyl]oxy}-2-phenylpiperidine]		signs of kidney damage (plasma creatinine, NGAL, osteopontin, urea) [2]: decreases the appearance of signs of kidney damage; protection against the effects of hypoxia on HKC8 cells [3]: strongly protective; protection from hypoxia, combined inhibition of RhoB and TACR1 [4]: better protection that inhibition of either one alone; survival of hRPTEC cells under hypoxia [5]: significantly increases survival
